Assay results: patent EP0560267B1, “Isosteric antiherpes peptide derivatives” (BOEHRINGER INGELHEIM (CANADA) LTD., priority 1992, dated 1993)
Where two headings read alike, the source gives them in different places.

Legend:
[1] = target: T1, HSV-1 ribonucleotide reductase (Human herpesvirus 1, UniProt P08543); assay: Inhibition of Herpes Simplex Virus (HSV-1) ribonucleotide reductase; format: biochemical; conditions: assay of example 10
T1 construct: HSV-1 ribonucleotide reductase (partially purified) was obtained from quiescent BHK-21/C13 cells infected with strain F HSV-1 virus; made in house; host or cells: quiescent BHK-21/C13 cells infected with HSV-1 strain F (virus-encoded enzyme, partially purified)
Method in brief: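 Partially purified enzyme from quiescent BHK-21/C13 cells infected with HSV-1 strain F at 10 PFU/cell, used at constant units per assay. IC50 taken as concentration giving 50% of maximal inhibition versus no-compound control; mean of four assays.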

[2] = tested on: HSV-2; assay: Inhibition of Herpes Simplex Virus (HSV-2) replication in cell culture; format: cell-based
Method in brief: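 Serum-starved BHK-21/C13 cells infected with HSV-2 strain HG-52 (MOI 0.02 PFU/cell), then exposed to compound in BBMT medium for 29 h at 37°. Progeny virus titrated on fresh BHK-21/C13 cells by neutral red viability read at 540; EC50 as concentration halving virus replication.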

[3] = Table IV, cell culture assay of example 11, read-out: EC50

T1 sequence (P08543 whole entry): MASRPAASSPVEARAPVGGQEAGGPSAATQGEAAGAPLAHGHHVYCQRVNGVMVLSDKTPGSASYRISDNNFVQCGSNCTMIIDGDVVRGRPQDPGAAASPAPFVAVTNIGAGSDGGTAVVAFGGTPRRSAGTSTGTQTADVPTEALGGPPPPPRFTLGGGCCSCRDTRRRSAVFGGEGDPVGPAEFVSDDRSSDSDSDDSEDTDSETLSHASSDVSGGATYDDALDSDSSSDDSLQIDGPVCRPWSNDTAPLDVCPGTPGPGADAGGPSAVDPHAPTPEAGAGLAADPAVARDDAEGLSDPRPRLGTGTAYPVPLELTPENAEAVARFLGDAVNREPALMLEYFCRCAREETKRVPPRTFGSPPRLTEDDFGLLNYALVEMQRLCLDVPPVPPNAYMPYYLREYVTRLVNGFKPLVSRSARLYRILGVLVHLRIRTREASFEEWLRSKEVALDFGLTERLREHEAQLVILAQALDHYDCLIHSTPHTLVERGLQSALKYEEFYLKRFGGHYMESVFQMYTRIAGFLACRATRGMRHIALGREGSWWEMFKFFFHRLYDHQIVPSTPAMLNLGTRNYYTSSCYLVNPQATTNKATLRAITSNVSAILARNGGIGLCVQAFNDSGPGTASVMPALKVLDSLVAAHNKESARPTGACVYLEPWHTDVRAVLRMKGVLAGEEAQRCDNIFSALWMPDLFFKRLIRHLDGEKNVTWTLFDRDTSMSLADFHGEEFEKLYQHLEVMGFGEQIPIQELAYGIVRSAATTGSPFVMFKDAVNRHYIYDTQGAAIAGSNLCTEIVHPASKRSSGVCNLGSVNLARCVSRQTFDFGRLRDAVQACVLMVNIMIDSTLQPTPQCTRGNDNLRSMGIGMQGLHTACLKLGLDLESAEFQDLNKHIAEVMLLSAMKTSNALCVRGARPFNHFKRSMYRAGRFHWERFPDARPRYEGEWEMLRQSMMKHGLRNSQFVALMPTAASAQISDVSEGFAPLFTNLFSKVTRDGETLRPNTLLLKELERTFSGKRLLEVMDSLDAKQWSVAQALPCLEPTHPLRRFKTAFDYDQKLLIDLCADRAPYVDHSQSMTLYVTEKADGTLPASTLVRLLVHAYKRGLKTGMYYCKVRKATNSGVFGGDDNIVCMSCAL

Row | Compound | IC50 ([1]; Table V) [µM] | EC50 ([2]; Human alphaherpesvirus 2) [µM] | EC50 ([2]; Human alphaherpesvirus 2, Table V, cell culture assay of example 11) [µM] | IC50 ([1]; Table IV) [µM] | EC50 [2, 3] [µM]
1 | CCCC(CCC)NC(=O)NC(C(=O)CC(CC(=O)C1CCCCC1)C(=O)NC(C(=O)NCC(C)(C)C)C1(C(=O)O)CCCC1)C(C)(C)C [Pr2CHNHC(O)-Tbg-CH2-(R)-CH{CH2-C(O)-(cyclohexyl)}C(O)-Asp(cyPn)-NHCH2CMe3] | 0.37 | 61 | – | – | –
2 | CCCC(CCC)NC(=O)NC(C(=O)CC(CC(=O)C(C)(C)C)C(=O)NC(C(=O)NC(C)C(C)(C)C)C1(C(=O)O)CCCC1)C(C)C [Pr2CHNHC(O)-Val-CH2-(R)-CH(CH2-C(O)CMe3)C(O)-Asp(cyPn)-NH-(R)-CH(Me)CMe3] | 0.22 | – | 37 | – | –
3 | EtPr2CHNHC(O)-Tbg-CH2-(R)-CH(CH2C(O)CMe3)C(O)-Asp(cyPn)-NHCH2CHEt2 [EtPr2CHNHC(O) / NHCH2CHEt2] | – | – | – | 0.41 | 42
4 | Me(CH2=CH-CH2)2CNHC(O)-Tbg-CH2-(R)-CH(CH2C(O)CMe3)C(O)-Asp(cyPn)-NHCH2CMe3 [Me(CH2=CHCH2)2-CNHC(O) / NHCH2CMe3] | – | – | – | 0.27 | 30
